Experiments:
Rattus norvegicus = assay: Increase in voided volume in po dosed Sprague-Dawley rat benign prostatic hyperplasia model administered 20 mins followed by distilled watering loading measured for 2 hrs; type: functional; settings: read-out: MED
[1] = Cmax in rat at 10 mg/kg, iv; type: ADME, organism-based; design: dose 10 mg/kg, route intravenous; settings: in vivo
[2] = molecular target: T1, Alpha-1B adrenergic receptor (Rattus norvegicus, UniProt P15823); assay: Antagonist activity at alpha1B adrenoceptor in Sprague-Dawley rat aorta assessed as inhibition of norepinephrine-induced smooth muscle contraction after 20 mins
T1 sequence (P15823 whole entry): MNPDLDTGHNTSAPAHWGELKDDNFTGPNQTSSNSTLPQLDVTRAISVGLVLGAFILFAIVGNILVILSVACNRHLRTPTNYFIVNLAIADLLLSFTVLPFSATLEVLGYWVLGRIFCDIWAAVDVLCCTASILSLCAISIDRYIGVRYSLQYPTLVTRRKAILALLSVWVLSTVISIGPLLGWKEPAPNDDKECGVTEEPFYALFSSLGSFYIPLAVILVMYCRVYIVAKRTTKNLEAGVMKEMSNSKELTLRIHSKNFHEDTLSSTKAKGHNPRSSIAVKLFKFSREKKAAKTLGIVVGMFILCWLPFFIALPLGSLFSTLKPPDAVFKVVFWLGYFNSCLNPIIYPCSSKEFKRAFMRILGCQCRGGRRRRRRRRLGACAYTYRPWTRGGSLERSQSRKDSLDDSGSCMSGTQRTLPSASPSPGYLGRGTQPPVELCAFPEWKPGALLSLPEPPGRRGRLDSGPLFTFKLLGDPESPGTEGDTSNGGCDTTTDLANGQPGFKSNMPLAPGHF

[3] = molecular target: T2, Alpha-1D adrenergic receptor (Homo sapiens, UniProt P25100)
T2 sequence (P25100 whole entry): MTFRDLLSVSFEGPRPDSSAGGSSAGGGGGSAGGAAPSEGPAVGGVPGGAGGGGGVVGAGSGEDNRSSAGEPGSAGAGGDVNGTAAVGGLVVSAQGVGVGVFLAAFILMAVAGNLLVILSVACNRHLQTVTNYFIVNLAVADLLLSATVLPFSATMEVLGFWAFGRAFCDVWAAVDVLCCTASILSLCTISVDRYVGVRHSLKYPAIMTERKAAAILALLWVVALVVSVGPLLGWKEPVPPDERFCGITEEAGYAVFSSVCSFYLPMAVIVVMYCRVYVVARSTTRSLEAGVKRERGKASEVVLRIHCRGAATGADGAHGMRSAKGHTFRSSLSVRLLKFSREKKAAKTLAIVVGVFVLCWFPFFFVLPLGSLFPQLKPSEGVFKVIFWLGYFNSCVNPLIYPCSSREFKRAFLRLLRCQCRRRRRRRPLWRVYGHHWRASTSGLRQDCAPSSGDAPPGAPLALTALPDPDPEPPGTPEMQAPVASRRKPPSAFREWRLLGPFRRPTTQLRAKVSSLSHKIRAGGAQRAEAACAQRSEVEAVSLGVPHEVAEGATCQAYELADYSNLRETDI
Description: Antagonist activity at human full-length N-terminal SNAP-tagged alpha1D adrenoceptor expressed in HEK293 cells assessed as inhibition of agonist-induced calcium mobilization preincubated for 10 mins followed by agonist addition by fluo-4 AM dye-based assay

[4] = molecular target: T3, Alpha-1A adrenergic receptor (Homo sapiens, UniProt P35348)
T3 sequence (P35348 whole entry): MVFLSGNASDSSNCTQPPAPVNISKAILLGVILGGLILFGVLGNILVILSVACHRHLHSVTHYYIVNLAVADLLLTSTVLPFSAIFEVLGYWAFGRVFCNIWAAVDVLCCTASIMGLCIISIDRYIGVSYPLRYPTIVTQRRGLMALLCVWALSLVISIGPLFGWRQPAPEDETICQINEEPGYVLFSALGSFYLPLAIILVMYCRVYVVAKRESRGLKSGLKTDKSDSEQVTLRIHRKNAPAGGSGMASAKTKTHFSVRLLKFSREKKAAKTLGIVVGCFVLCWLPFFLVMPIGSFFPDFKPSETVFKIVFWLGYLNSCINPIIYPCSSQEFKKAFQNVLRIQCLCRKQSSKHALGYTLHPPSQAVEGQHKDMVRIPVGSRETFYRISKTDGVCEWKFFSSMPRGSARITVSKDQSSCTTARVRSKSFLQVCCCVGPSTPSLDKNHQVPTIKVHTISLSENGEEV
Description: Antagonist activity at human full-length N-terminal SNAP-tagged alpha1A adrenoceptor expressed in HEK293 cells assessed as inhibition of agonist-induced calcium mobilization preincubated for 10 mins followed by agonist addition by fluo-4 AM dye-based assay

Homo sapiens = species on record: Homo sapiens; assay: Selectivity ratio of IC50 for human full-length N-terminal SNAP-tagged alpha1D adrenoceptor to IC50 for human full-length N-terminal SNAP-tagged alpha1A adrenoceptor
[5] = molecular target: T4, Alpha-1B adrenergic receptor (Homo sapiens, UniProt P35368)
T4 sequence (P35368 whole entry): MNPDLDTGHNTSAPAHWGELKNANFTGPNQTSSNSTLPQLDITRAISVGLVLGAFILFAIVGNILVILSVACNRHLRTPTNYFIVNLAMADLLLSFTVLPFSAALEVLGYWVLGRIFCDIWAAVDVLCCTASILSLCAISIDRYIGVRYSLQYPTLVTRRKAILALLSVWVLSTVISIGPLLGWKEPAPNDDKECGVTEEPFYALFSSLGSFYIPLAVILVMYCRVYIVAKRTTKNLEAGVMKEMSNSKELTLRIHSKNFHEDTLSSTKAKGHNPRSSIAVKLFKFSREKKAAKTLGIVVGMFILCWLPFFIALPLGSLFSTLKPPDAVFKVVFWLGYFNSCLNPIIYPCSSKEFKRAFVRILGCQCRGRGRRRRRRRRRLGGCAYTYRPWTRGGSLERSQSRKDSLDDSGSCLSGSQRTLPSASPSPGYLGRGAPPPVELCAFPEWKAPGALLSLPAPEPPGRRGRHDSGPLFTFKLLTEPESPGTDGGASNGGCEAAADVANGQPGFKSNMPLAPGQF
Description: Antagonist activity at human full-length N-terminal SNAP-tagged alpha1B adrenoceptor expressed in HEK293 cells assessed as inhibition of agonist-induced calcium mobilization preincubated for 10 mins followed by agonist addition by fluo-4 AM dye-based assay

[6] = Apparent clearance in rat at 10 mg/kg, iv; type: ADME, organism-based; settings: in vivo, read-out: CL(app) (converted)
Mus musculus = assay: Acute toxicity in Kunming mouse assessed as effect on body weight at 500 mg/kg, po administered as single dose measured over 7 days; type: organism-based; settings: in vivo, 168 h
[7] = Half life in rat at 10 mg/kg, iv; type: ADME, organism-based; settings: in vivo
[8] = Selectivity ratio of IC50 for alpha1B adrenoceptor in Sprague-Dawley rat aorta to IC50 for alpha1A adrenoceptor in Sprague-Dawley rat urethra
[9] = AUC (0 to t) in rat at 10 mg/kg, iv; type: ADME, organism-based; settings: in vivo
[10] = AUC (0 to t) in rat at 20 mg/kg, ig via oral gavage; type: ADME, organism-based; settings: in vivo
[11] = molecular target: Voltage-gated inwardly rectifying potassium channel KCNH2 (Homo sapiens, UniProt Q12809); assay: Inhibition of human ERG
[12] = Cmax in rat at 20 mg/kg, ig via oral gavage; type: ADME, organism-based; settings: in vivo
[13] = Tmax in rat at 20 mg/kg, ig via oral gavage; type: ADME, organism-based; settings: in vivo

Sequence of Voltage-gated inwardly rectifying potassium channel KCNH2 (Q12809 whole entry): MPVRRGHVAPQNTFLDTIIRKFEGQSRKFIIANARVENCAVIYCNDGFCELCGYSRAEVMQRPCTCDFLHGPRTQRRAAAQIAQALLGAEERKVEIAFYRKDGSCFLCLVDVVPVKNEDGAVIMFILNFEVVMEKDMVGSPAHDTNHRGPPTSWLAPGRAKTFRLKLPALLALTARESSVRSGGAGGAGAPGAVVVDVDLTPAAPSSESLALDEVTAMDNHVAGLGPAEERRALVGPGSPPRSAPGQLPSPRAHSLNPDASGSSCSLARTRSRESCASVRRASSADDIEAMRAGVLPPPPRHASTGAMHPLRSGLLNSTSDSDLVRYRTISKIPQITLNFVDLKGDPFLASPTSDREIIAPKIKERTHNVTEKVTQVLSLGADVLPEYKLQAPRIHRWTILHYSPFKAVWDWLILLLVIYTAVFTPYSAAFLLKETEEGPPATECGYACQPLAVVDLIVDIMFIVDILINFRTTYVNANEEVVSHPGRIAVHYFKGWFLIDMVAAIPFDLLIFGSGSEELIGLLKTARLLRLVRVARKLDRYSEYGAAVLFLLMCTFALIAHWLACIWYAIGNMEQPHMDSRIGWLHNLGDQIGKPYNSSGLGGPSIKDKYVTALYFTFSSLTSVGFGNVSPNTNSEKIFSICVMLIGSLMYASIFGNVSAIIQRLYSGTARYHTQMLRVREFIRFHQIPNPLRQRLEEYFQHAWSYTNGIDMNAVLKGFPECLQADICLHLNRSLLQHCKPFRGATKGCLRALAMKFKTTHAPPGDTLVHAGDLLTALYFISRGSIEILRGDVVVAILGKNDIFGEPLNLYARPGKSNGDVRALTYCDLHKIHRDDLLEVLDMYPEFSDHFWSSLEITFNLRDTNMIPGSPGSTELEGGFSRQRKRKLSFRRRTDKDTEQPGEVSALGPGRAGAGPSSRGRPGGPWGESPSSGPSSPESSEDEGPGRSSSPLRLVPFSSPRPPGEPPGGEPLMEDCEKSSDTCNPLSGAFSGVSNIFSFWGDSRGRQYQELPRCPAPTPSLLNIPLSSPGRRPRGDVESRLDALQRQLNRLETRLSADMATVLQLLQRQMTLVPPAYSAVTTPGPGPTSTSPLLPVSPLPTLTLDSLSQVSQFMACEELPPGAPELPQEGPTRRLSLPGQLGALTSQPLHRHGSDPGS

Compound COc1ccc2[nH]c3c(c2c1)C[C@H]1c2cc4c(cc2CCN1C3)OCO4 has a minimal effective dose (Rattus norvegicus) of 3 mg/kg, a Cmax [1] of 855 ng/mL and an IC50 [2] of over 1000 nM. For the same compound, the IC50 [3] was 251 nM, the IC50 [4] was 12.8 nM and the Ratio IC50 (Homo sapiens) was 19.6. For the same compound, the IC50 [5] was over 10000 nM, the clearance [6] was 96.5 mL/min/kg and the Activity (Mus musculus) was “Non-Toxic”. The half-life [7] was 58.8 min, the “Ratio IC50” value [8] was over 2083 and the AUC(0-t) [9] was 1870 ng·h/mL. The AUC(0-t) [10] was 2270 ng·h/mL, the IC50 [11] was 13200 nM and the Cmax [12] was 684 ng/mL. It also gave a Tmax [13] of 60 min.
